Source: PMC4703981, “Autophosphorylation at Thr279 of Entamoeba histolytica atypical kinase EhAK1 is required for activity and regulation of erythrophagocytosis” (Scientific Reports, 2016)

Target: T1, EhAK1 (Entamoeba histolytica, UniProt C4M9G9)
T1 construct: gene EHI_105830
Conditions: maximal quench on ATP titration, no affinity constant

T1 sequence (C4M9G9 entry or part of it): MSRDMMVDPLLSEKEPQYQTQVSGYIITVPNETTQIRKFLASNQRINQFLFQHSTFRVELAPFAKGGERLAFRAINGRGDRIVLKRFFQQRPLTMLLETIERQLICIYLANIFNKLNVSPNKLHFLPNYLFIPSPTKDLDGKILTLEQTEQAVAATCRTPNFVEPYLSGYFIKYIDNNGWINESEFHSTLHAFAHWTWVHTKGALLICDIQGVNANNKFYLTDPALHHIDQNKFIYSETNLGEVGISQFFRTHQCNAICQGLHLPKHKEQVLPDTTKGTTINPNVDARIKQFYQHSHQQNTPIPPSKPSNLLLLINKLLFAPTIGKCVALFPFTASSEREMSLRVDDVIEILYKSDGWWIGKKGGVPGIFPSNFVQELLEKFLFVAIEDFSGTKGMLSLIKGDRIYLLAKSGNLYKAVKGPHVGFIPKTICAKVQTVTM

SMILES: Nc1ncnc2c1ncn2[C@@H]1O[C@H](COP(=O)(O)OP(=O)(O)OP(=O)(O)O)[C@@H](O)[C@H]1O [ATP]
- % decrease in Trp fluorescence: 76%
